Experimental findings from patent US9000022B2 (Exelixis Patent Company LLC, priority 2005, dated 2015) are described below.

For this test, the system named is LXRα and/or LXRβ. As to the kind of experiment: Co-transfection assay (LXRE luciferase reporter, CV-1 cells). The test is classed as cell-based, human. The settings on record: tested as described in Example 33; IC50 or EC50 for LXRα and/or LXRβ, isoform not specified; read-out: activity (IC50 or EC50 for LXR). In a few lines: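 Luciferase signal measures LXR-RXR transcriptional activation in transiently transfected CV-1 cells carrying human LXRα or LXRβ, RXRα and a single-copy LXRE reporter. Cells were exposed to compound for 20 h at 37 °C with at most 1% DMSO, using 10 μM final for screening. Potency was derived from 4-parameter fits of 8-point, half-log dose curves averaged over ≥3 runs, and efficacy was expressed as % of a reference agonist.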
Consider `CCS(=O)(=O)c1cccc(-c2ccc(-n3cc(C(C)(C)O)nc3-c3ccccc3C(F)(F)F)cc2)c1` [Example 200, 2-{1-[3′-(ethylsulfonyl)biphenyl-4-yl]-2-[2-(trifluoromethyl)phenyl]-1H-imidazol-4-yl}propan-2-ol], for which the IC50 or EC50 (potency, activation or inhibition) was less than 1000 nM. The value for `CCS(=O)(=O)c1cccc(-c2ccc(-n3cc(C(C)(C)O)nc3-c3cccc4cnccc34)c(C)c2)c1` [Example 36, 2-(1-(3′-(ethylsulfonyl)-3-methylbiphenyl-4-yl)-2-(isoquinolin-5-yl)-1H-imidazol-4-yl)propan-2-ol] was 1000 to 10000 nM.

Regarding `CC(C)(CO)NC(=O)c1cn(-c2ccc(-c3cccc(S(C)(=O)=O)c3)cc2Cl)c(-c2c(Cl)cccc2Cl)n1` [Example 463, 1-(3-chloro-3′-(methylsulfonyl)biphenyl-4-yl)-2-(2,6-dichlorophenyl)-N-(1-hydroxy-2-methylpropan-2-yl)-1H-imidazole-4-carboxamide], the IC50 or EC50 (potency, activation or inhibition) was less than 1000 nM. The value for `CCS(=O)(=O)c1cccc(-c2ccc(-n3cc(C(C)(C)O)nc3Cc3cc(Cl)ccc3F)cc2)c1` [Example 482, 2-(2-(5-chloro-2-fluorobenzyl)-1-(3′-(ethylsulfonyl)biphenyl-4-yl)-1H-imidazol-4-yl)propan-2-ol] was less than 1000 nM.

As to `CCc1ccccc1-c1nc(/C(C)=N/O)cn1-c1ccc(-c2cccc(S(C)(=O)=O)c2)cc1` [Example 71, (E)-1-(2-(2-ethylphenyl)-1-(3′-(methylsulfonyl)biphenyl-4-yl)-1H-imidazol-4-yl)ethanone oxime], the IC50 or EC50 (potency, activation or inhibition) is less than 1000 nM. `Cc1cc(-c2cccc(S(C)(=O)=O)c2)ccc1-n1cc(C(C)(C)O)nc1-c1c(C)cccc1Cl` [Example 191, 2-(2-(2-chloro-6-methylphenyl)-1-(3-methyl-3′-(methylsulfonyl)biphenyl-4-yl)-1H-imidazol-4-yl)propan-2-ol]: the IC50 or EC50 (potency, activation or inhibition) was less than 1000 nM.

As for `Cc1cc(-c2ccc(CO)c(S(C)(=O)=O)c2)ccc1-n1cc(C(C)(C)O)nc1-c1cccc(Cl)c1Cl` [Example 176, 2-(2-(2,3-dichlorophenyl)-1-(4′-(hydroxymethyl)-3-methyl-3′-(methylsulfonyl)biphenyl-4-yl)-1H-imidazol-4-yl)propan-2-ol], the IC50 or EC50 (potency, activation or inhibition) was less than 1000 nM. The value for `Cc1cc(-c2cccc(S(C)(=O)=O)c2)ccc1-n1cc(C(C)(C)O)nc1-c1ccccc1C(F)(F)F` [Example 183, 2-(1-(3-methyl-3′-(methyl-sulfonyl)biphenyl-4-yl)-2-(2-(trifluoromethyl)phenyl)-1H-imidazol-4-yl)propan-2-ol] was less than 1000 nM; that for `CC(C)(O)c1cn(-c2ccc(-c3cccc(S(C)(=O)=O)c3)cc2)c(-c2cccc(Cl)c2)n1` [Example 393, 2-{2-(3-chlorophenyl)-1-[3′-(methyl-sulfonyl)biphenyl-4-yl]-1H-imidazol-4-yl}propan-2-ol] was less than 1000 nM. The value for `CC(=O)c1cn(-c2ccc(-c3cccc(S(C)(=O)=O)c3)cc2)c(-c2ccccc2C(F)(F)F)n1` [Example 411, 1-{1-[3′-(methylsulfonyl)biphenyl-4-yl]-2-[2-(trifluoromethyl)phenyl]-1H-imidazol-4-yl}ethanone] was less than 1000 nM; that for `CC(C)(O)c1cn(-c2ccc(-c3cccc(S(C)(=O)=O)c3)cc2Cl)c(-c2ccccc2Cl)n1` [Example 417, 2-{1-[3-chloro-3′-(methyl-sulfonyl)biphenyl-4-yl]-2-(2-chlorophenyl)-1H-imidazol-4-yl}propan-2-ol] was less than 1000 nM; that for `CC(C)(O)c1cn(-c2ccc(-c3ccc(CO)c(S(C)(=O)=O)c3)cc2Cl)c(-c2cccc(Cl)c2Cl)n1` [Example 148, 2-(1-(3-chloro-4′-(hydroxymethyl)-3′-(methylsulfonyl)biphenyl-4-yl)-2-(2,3-dichlorophenyl)-1H-imidazol-4-yl)propan-2-ol] was less than 1000 nM. The value for `Cc1cc(-c2cccc(S(C)(=O)=O)c2)ccc1-n1cc(C(C)(C)O)nc1-c1cccs1` [Example 41] was 1000 to 10000 nM; that for `Cc1c(Cl)cccc1-c1nc(C(C)(C)O)cn1-c1ccc(-c2cccc(S(C)(=O)=O)c2)cc1Cl` [Example 143, 2-(2-(3-chloro-2-methylphenyl)-1-(3-chloro-3′-(methylsulfonyl)biphenyl-4-yl)-1H-imidazol-4-yl)propan-2-ol] was less than 1000 nM; that for `CC(C)(O)c1cn(-c2ccc(-c3ccc(CO)c(S(C)(=O)=O)c3)cc2F)c(-c2c(Cl)cccc2Cl)n1` [Example 122, 2-(2-(2,6-dichlorophenyl)-1-(3-fluoro-4′-(hydroxymethyl)-3′-(methylsulfonyl)biphenyl-4-yl)-1H-imidazol-4-yl)propan-2-ol] was less than 1000 nM. On to `CC(C)(C)NC(=O)c1cn(-c2ccc(-c3cccc(S(C)(=O)=O)c3)cc2Cl)c(-c2c(Cl)cccc2Cl)n1` [Example 465, N-tert-butyl-1-(3-chloro-3′-(methylsulfonyl)biphenyl-4-yl)-2-(2,6-dichlorophenyl)-1H-imidazole-4-carboxamide], for which the IC50 or EC50 (potency, activation or inhibition) is less than 1000 nM. With `CC(C)(C)c1ccc(-c2ccc(-n3cc(C(C)(C)O)nc3-c3ccccc3Cl)cc2)cc1` [Example 389, 2-{2-(2-chlorophenyl)-1-[4′-(1,1-dimethylethyl)biphenyl-4-yl]-1H-imidazol-4-yl}propan-2-ol] the figure was 1000 to 10000 nM; with `CC(C)(O)c1nc(-c2ccccc2C(F)(F)F)n(-c2ccc(-c3cccc(S(C)(=O)=O)c3)cc2)c1Br` [Example 402, 2-{5-bromo-1-[3′-(methyl-sulfonyl)biphenyl-4-yl]-2-[2-(trifluoro-methyl)phenyl]-1H-imidazol-4-yl}propan-2-ol], less than 1000 nM; with `CC(C)(O)c1cn(-c2ccc(-c3cccc(S(C)(=O)=O)c3)cc2)c(-c2cnccc2C(F)(F)F)n1` [Example 37, 2-(1-(3′-(methylsulfonyl)biphenyl-4-yl)-2-(4-(trifluoromethyl)pyridin-3-yl)-1H-imidazol-4-yl)propan-2-ol], greater than 10000 nM. The value for `CC(C)(O)c1cn(-c2ccc(-c3cccc(NC(=O)c4ccc5c(c4)OCO5)c3)cc2)c(-c2ccccc2Cl)n1` [Example 391, N-{4′-[2-(2-chlorophenyl)-4-(1-hydroxy-1-methylethyl)-1H-imidazol-1-yl]biphenyl-3-yl}-1,3-benzodioxole-5-carboxamide] was 1000 to 10000 nM; that for `Cc1cc(-c2cccc(S(C)(=O)=O)c2)ccc1-n1cc(C(C)(C)O)nc1-c1c(F)cccc1Cl` [Example 187, 2-(2-(2-chloro-6-fluorophenyl)-1-(3-methyl-3′-(methylsulfonyl)biphenyl-4-yl)-1H-imidazol-4-yl)propan-2-ol] was less than 1000 nM; that for `CC(C)(O)c1cn(-c2ccc(-c3cccc(S(C)(=O)=O)c3)cc2)c(-c2c(F)cccc2F)n1` [Example 410, 2-{2-(2,6-difluorophenyl)-1-[3′-(methylsulfonyl)biphenyl-4-yl]-1H-imidazol-4-yl}propan-2-ol] was 1000 to 10000 nM.

For the molecule `Cc1cc(-c2ccc(CO)c(S(C)(=O)=O)c2)ccc1-n1cc(C(C)(C)O)nc1-c1c(F)cccc1Cl` [Example 172, 2-(2-(2-chloro-6-fluorophenyl)-1-(4′-(hydroxymethyl)-3-methyl-3′-(methylsulfonyl)biphenyl-4-yl)-1H-imidazol-4-yl)propan-2-ol], the IC50 or EC50 (potency, activation or inhibition) is less than 1000 nM. The value for `CCS(=O)(=O)c1cccc(-c2ccc(-n3cc(C(C)(C)O)nc3-c3cccc4ccccc34)c(Cl)c2)c1` [Example 31, 2-(1-(3-chloro-3′-(ethyl-sulfonyl)biphenyl-4-yl)-2-(naphthalen-1-yl)-1H-imidazol-4-yl)propan-2-ol] was less than 1000 nM.

With `CS(=O)(=O)c1cccc(-c2ccc(-n3cc(C(=S)NCC(F)(F)F)nc3-c3ccccc3Cl)cc2)c1` [Example 398, 2-(2-chlorophenyl)-1-[3′-(methyl-sulfonyl)biphenyl-4-yl]-N-(2,2,2-trifluoroethyl)-1H-imidazole-4-carbothioamide], the IC50 or EC50 (potency, activation or inhibition) was less than 1000 nM. Regarding `CC(C)S(=O)(=O)c1cccc(-c2ccc(-n3cc(C(F)(F)F)nc3-c3ccccc3C(F)(F)F)cc2)c1` [Example 373, 1-{3′-[(1-methylethyl)sulfonyl]biphenyl-4-yl}-4-(trifluoromethyl)-2-[2-(trifluoromethyl)phenyl]-1H-imidazole], the IC50 or EC50 (potency, activation or inhibition) is less than 1000 nM. The value for `Cc1cccc(Cl)c1-c1nc(C(C)(C)O)cn1-c1ccc(-c2ccc(CO)c(S(C)(=O)=O)c2)cc1Cl` [Example 155, 2-(1-(3-chloro-4′-(hydroxy-methyl)-3′-(methylsulfonyl)biphenyl-4-yl)-2-(2-chloro-6-methylphenyl)-1H-imidazol-4-yl)propan-2-ol] was less than 1000 nM; that for `CC(C)(O)c1cn(-c2ccc(-c3cccc(S(C)(=O)=O)c3)c(F)c2)c(-c2ccccc2Cl)n1` [Example 387, 2-{2-(2-chlorophenyl)-1-[2-fluoro-3′-(methylsulfonyl)biphenyl-4-yl]-1H-imidazol-4-yl}propan-2-ol] was 1000 to 10000 nM. Regarding `CC(C)(O)c1cn(-c2ccc(-c3cccc(S(C)(=O)=O)c3)cc2F)c(-c2ccccc2C(F)(F)F)n1` [Example 109, 2-(1-(3-fluoro-3′-(methyl-sulfonyl)biphenyl-4-yl)-2-(2-(trifluoromethyl)phenyl)-1H-imidazol-4-yl)propan-2-ol], the IC50 or EC50 (potency, activation or inhibition) was less than 1000 nM.
